Source: PubChem BioAssay (NCI)
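Five compound concentrations were applied to cells in 96-well plates for 48 hours; endpoints were derived by simple linear interpolation of the resulting dose-response curve. GI50: concentration for 50% inhibition of growth. At the TGI there is no net growth.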

Assays:
Experiment in all cases: growth of human tumour cells (NCI), 48 h
SF-539 CNS = system: SF-539 CNS
SF-295 CNS = system: SF-295 CNS
MCF7 breast = system: MCF7 breast
DU-145 prostate = system: DU-145 prostate
SN12C renal = system: SN12C renal
OVCAR-4 ovarian = system: OVCAR-4 ovarian
RPMI-8226 leukemia = system: RPMI-8226 leukemia
HOP-62 NSCLC = system: HOP-62 NSCLC
HT29 colon = system: HT29 colon
SNB-75 CNS = system: SNB-75 CNS

| Compound | GI50 (SF-539 CNS) [µM] | TGI (SF-539 CNS) [µM] | GI50 (SF-295 CNS) [µM] | TGI (SF-295 CNS) [µM] | GI50 (MCF7 breast) [µM] | TGI (MCF7 breast) [µM] | GI50 (DU-145 prostate) [µM] | TGI (DU-145 prostate) [µM] | GI50 (SN12C renal) [µM] | TGI (SN12C renal) [µM] | GI50 (OVCAR-4 ovarian) [µM] | TGI (OVCAR-4 ovarian) [µM] | GI50 (RPMI-8226 leukemia) [µM] | TGI (RPMI-8226 leukemia) [µM] | GI50 (HOP-62 NSCLC) [µM] | TGI (HOP-62 NSCLC) [µM] | TGI (HT29 colon) [µM] | TGI (SNB-75 CNS) [µM] | GI50 (HT29 colon) [µM] | GI50 (SNB-75 CNS) [µM] |
| --- | --- | --- | --- | --- | --- | --- | --- | --- | --- | --- | --- | --- | --- | --- | --- | --- | --- | --- | --- | --- |
| Nc1cc(N)c2nc(-c3ccccc3)c(Nc3ccc(Cl)c(Cl)c3)nc2c1 | 17.1 | 35.3 | 12.4 | 27.9 | 4.96 | 21.1 | 16.7 | 32.6 | 12.7 | 31.8 | 11.1 | 47.8 | 2 | 4.92 | 17.5 | 38.4 | – | – | – | – |
| Cc1cc2c(cc1C)[n+](=O)c(C(=O)C/C(=N/NC(=O)CC#N)C(=O)Nc1ccccc1C(F)(F)F)c(C)n2[O-] | – | > 100 | – | > 100 | – | – | – | – | – | > 100 | – | > 100 | – | – | – | > 100 | > 100 | > 100 | – | – |
| COC12C=C(C)C(CC1)CC2C(=O)O (stereo not given) | – | > 100 | – | > 100 | – | – | – | – | – | > 100 | – | > 100 | – | > 100 | – | > 100 | > 100 | > 100 | – | – |
| CC(C)(C)C1C=C(Sc2ccccc2)C(=O)O1 (stereo not given) | – | > 100 | – | > 100 | – | – | – | – | – | > 100 | – | > 100 | – | > 100 | – | > 100 | > 100 | 83.8 | – | – |
| COc1ccc(C2=CC3CCC2C3)cc1 (stereo not given) | – | > 100 | – | > 100 | – | – | – | – | – | > 100 | – | > 100 | – | > 100 | – | > 100 | > 100 | > 100 | – | – |
| COc1ccc(/C=C/CN(C)CCc2ccccc2)cc1OC | – | – | – | > 100 | – | – | – | – | – | > 100 | – | – | – | > 100 | – | – | > 100 | > 100 | – | – |
| CCC[CH2][Sn]([CH2]CCC)([O]C(=O)c1cccnc1SC)[O]C(=O)c1cccnc1SC | 1.2 | 2.49 | 1.38 | 2.67 | – | – | – | – | 0.62 | 1.92 | 1.62 | 3.06 | – | – | 2.43 | 4.22 | 3.22 | 2.02 | 1.61 | 0.673 |
| COC(=O)C1Cc2c(n(Cc3ccccc3)c3ccccc23)C(CCC(=O)O)N1C(C)C (stereo not given) | – | > 100 | – | > 100 | – | – | – | – | – | > 100 | – | > 100 | – | – | – | – | > 100 | > 100 | – | – |
| COC1/C=C\C=C(/C)C(=O)NC2=CC(=O)C(=O)C(=C2O)CC(C)CC(OC)C(O)C(C)/C=C(\C)C1OC(N)=O (stereo not given) | – | 22.5 | – | > 100 | – | > 42.4 | – | 35.5 | – | 3.22 | – | 22.1 | – | 33.5 | – | > 74.1 | 17.8 | – | – | – |
| CN1CCN(C(=O)OCc2nc3c(N4CCOCC4)nc(Cl)nc3n2C)CC1 | 1.39 | 2.73 | 8.35 | 20.7 | – | – | 1.39 | 3.09 | 1.45 | 3.06 | 1.06 | 2.27 | 0.33 | 1.63 | 1.53 | 4.92 | 3.17 | 2.73 | 0.898 | 1.35 |
| C/C(CC(=O)Nc1cc(Cl)c(Cl)cc1Cl)=N\NC(N)=O | – | > 100 | – | > 100 | – | – | – | – | – | – | – | – | – | > 100 | – | > 100 | > 100 | > 100 | – | – |
